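Grown in 96-well plates, cells were treated for 48 hours with each compound at five concentrations. Insufficient inhibition: endpoint recorded as highest concentration tested. Here, GI50 denotes the concentration required for 50% inhibition of growth. TGI marks complete inhibition of growth.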
Legend:
Test in all cases: DTP human tumour cell line panel, 48 h
SF-268 CNS = tested on: SF-268 CNS
LOX IMVI melanoma = tested on: LOX IMVI melanoma
OVCAR-8 ovarian = tested on: OVCAR-8 ovarian
CAKI-1 renal = tested on: CAKI-1 renal
EKVX NSCLC = tested on: EKVX NSCLC
TK-10 renal = tested on: TK-10 renal
MCF7 breast = tested on: MCF7 breast
SK-MEL-28 melanoma = tested on: SK-MEL-28 melanoma
UACC-62 melanoma = tested on: UACC-62 melanoma
SK-OV-3 ovarian = tested on: SK-OV-3 ovarian

Compound	GI50 (SF-268 CNS) [µM]	TGI (SF-268 CNS) [µM]	GI50 (LOX IMVI melanoma) [µM]	TGI (LOX IMVI melanoma) [µM]	GI50 (OVCAR-8 ovarian) [µM]	TGI (OVCAR-8 ovarian) [µM]	GI50 (CAKI-1 renal) [µM]	TGI (CAKI-1 renal) [µM]	GI50 (EKVX NSCLC) [µM]	TGI (EKVX NSCLC) [µM]	GI50 (TK-10 renal) [µM]	TGI (TK-10 renal) [µM]	GI50 (MCF7 breast) [µM]	TGI (MCF7 breast) [µM]	GI50 (SK-MEL-28 melanoma) [µM]	TGI (SK-MEL-28 melanoma) [µM]	GI50 (UACC-62 melanoma) [µM]	TGI (UACC-62 melanoma) [µM]	TGI (SK-OV-3 ovarian) [µM]	GI50 (SK-OV-3 ovarian) [µM]
CC1CCC(C#N)(NOC2=NCCN2)CC1 (configuration not stated)	63.1	> 100	5.33	20.2	29.2	> 100	16.2	33.8	36.1	> 100	26.3	> 100	55.6	> 100	> 100	> 100	25.4	> 100		
C/C(CC(=O)Nc1ccc(NC(=O)/C(C)=N/NS(=O)(=O)c2ccc(C)cc2)cc1)=N\NS(=O)(=O)c1ccc(C)cc1		> 100		> 100		> 100		> 100		> 100		> 100				> 100		> 100	> 100	
CC(=O)[CH-]C(=O)c1ccccc1.CC(=O)[CH-]C(=O)c1ccccc1.CC[O-].O=C1C=C([O-])C(=O)c2ccccc21.[Ti+4]	> 100	> 100	20	> 100	> 100	> 100	> 100	> 100	25.9	> 100					> 100	> 100	38.8	> 100	> 100	70.8
O/N=C1/C(=C/c2ccc(Cl)cc2)CCCC1C(NO)c1ccc(Cl)cc1 (configuration not stated)		40.2				55.3		53.5		74.8		> 100				22.5		> 100	> 100	
CCc1c(-c2coc(CC/C(C)=C/c3ccccc3)n2)oc(OC)c(C)c1=O		> 100		> 50.9		> 100		> 100		> 100		> 100				> 100		> 53	> 100	
Cn1c(=O)c2[nH]cnc2n(CC(=O)O)c1=O		> 100				> 100		> 100		> 100		> 100				> 100		> 100	> 100	
N#CNc1nc(C(=O)Nc2ccc(Cl)cc2)cc(-c2ccccc2)n1		> 100				> 100		> 100		> 100						> 100		> 100		
COC(=O)C1CCC(N2C(=O)CCC2C(=O)OC)=N1 (configuration not stated)		> 100		> 100		> 100		> 100		> 100		> 100				> 100		> 100	> 100	
Cc1[nH]ccc2cc3nc4ccccc4c3cc12	2.97	14.2			1.72	11.7	2.38	10.8			4.47	12.9	1.34	5.63	10.7	23.9	3.52	12.3	18.1	5.42
O=c1cc(-c2ccc[nH]2)[nH]c2cc3c(cc12)OCO3	> 100	> 100		> 100		> 100				> 100		> 100				> 100		> 100		
Cc1cccc(NC(=O)Cc2nc3ccccc3s2)c1C		> 100		> 100		> 100		> 100		> 100		> 100				> 100		> 100	> 100	
COc1cc(C(=C2SCCS2)c2nccc3cc(OC)c(OC)cc23)c([N+](=O)[O-])cc1OC		> 100		> 100		> 100				> 100		> 100				> 100		> 100	> 100	
O=C(Nc1ccccc1)OCc1nc2c([nH]1)C(=O)C=CC2=O				30.9		34		13.4		41		27				30.5		36.9	29.3	
CC(=O)OC1C/C(C)=C/[C@H](O)CC(C)/C=C/[C@@]2(C)CCC(C(C)(C)O)C12 (some centres not stated)		> 100		> 100		> 100		> 100		> 100		> 100				> 100		> 100	> 100	
CCc1ccccc1NC(=O)C1=C(C)NC(C)=C(C(=O)Nc2ccccc2CC)C1c1ccc(NC(C)=O)cc1		> 100		44.2		> 100		> 100		> 100		> 100				52.9			> 100	
C=C(C)C(=O)N1c2ccc(OC)cc2CC1C(=O)OCC (configuration not stated)		> 100				> 100		> 100		> 100		> 100		> 100		> 100		> 100	> 100	
O=C1C(Cl)=C(Nc2ccc3c(c2NC2=C(Cl)C(=O)c4ccccc4C2=O)C(=O)c2ccccc2C3=O)C(=O)c2ccccc21	2.91	12.9	0.872	10.4	2.72	9.6			1.83	4.18	7.26	22.2			2.87	8.61	1.3	2.9	20.6	6.52
CN(C)CCN1C(=O)c2cccc3c(-c4ccc5ncn(C6CCCCC6)c5c4)ccc(c23)C1=O	2.73	12.8			1.21	9.76	1.27	6.67	2.05	7.73	2.14	12.6	1.56	11.1	2.18	5.66			8.64	2.59
[N-]=[N+]=NC(c1cn(C2CC(O)C(CO)O2)c(=O)[nH]c1=O)C(I)I (configuration not stated)		> 100		> 100		> 100		> 100		> 100		> 100				> 100		> 100	> 100	
COc1ccc(CC(C#N)c2cc(OC)c(OC)c(OC)c2)cc1 (configuration not stated)		> 71.4		> 100		13		> 81		> 100		> 100				> 100		> 100		

— PubChem BioAssay (NCI)
